Data reported in ChEMBL document CHEMBL1154073, “Combining selectivity and affinity predictions using an integrated Support Vector Machine (SVM) approach: An alternative tool to discriminate between the human adenosine A(2A) and A(3) receptor pyrazolo-triazolo-pyrimidine antagonists binding sites” (Bioorg Med Chem, 2009).

Legend:
Adenosine receptor A2a = Adenosine receptor A2a (Homo sapiens, UniProt P29274); test: biochemical
Description: Displacement of [3H]NECA from human adenosine A2A receptor expressed in CHO cells

Adenosine receptor A3 = target: T1, Adenosine receptor A3 (Homo sapiens, UniProt P0DMS8); test: Displacement of [3H]NECA from human adenosine A3 receptor expressed in CHO cells; assay type: cell-based
T1 sequence (P0DMS8 whole entry): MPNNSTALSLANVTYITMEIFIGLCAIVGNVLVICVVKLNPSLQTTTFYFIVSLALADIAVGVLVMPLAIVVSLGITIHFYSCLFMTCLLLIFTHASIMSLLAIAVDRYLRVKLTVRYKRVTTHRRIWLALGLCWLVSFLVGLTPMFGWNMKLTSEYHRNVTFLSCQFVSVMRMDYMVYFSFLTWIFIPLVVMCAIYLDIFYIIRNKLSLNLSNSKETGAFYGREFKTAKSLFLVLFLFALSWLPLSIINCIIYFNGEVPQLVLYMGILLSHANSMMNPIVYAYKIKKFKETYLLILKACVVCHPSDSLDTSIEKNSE

Adenosine receptor A2b = target: T2, Adenosine receptor A2b (Homo sapiens, UniProt P29275); test: Antagonist activity at human adenosine A2B receptor expressed in CHO cells assessed as inhibition of NECA-induced adenylyl cyclase activity; assay type: functional, cell-based
T2 sequence (P29275 whole entry): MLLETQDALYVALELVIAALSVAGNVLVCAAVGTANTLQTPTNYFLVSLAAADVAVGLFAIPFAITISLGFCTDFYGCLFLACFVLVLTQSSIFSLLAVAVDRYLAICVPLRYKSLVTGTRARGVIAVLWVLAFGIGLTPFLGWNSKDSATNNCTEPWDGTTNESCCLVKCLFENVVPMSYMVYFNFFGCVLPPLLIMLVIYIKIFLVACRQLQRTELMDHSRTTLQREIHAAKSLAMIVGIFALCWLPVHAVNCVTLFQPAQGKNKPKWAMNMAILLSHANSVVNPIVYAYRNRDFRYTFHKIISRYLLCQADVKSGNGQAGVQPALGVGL

Adenosine receptor A1 = target: T3, Adenosine receptor A1 (Homo sapiens, UniProt P30542); test: Displacement of [3H]CCPA from human adenosine A1 receptor expressed in CHO cells; assay type: cell-based
T3 sequence (P30542 whole entry): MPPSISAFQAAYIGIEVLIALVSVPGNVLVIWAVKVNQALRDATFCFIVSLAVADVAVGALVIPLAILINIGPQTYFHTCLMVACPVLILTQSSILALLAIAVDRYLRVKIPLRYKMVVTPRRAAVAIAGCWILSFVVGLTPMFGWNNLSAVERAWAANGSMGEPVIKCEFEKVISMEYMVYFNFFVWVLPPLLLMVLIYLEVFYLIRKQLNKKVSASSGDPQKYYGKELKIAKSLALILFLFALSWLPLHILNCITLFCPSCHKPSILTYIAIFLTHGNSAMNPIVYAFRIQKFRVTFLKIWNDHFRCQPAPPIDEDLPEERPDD

Chain of Adenosine receptor A2a (P29274 whole entry): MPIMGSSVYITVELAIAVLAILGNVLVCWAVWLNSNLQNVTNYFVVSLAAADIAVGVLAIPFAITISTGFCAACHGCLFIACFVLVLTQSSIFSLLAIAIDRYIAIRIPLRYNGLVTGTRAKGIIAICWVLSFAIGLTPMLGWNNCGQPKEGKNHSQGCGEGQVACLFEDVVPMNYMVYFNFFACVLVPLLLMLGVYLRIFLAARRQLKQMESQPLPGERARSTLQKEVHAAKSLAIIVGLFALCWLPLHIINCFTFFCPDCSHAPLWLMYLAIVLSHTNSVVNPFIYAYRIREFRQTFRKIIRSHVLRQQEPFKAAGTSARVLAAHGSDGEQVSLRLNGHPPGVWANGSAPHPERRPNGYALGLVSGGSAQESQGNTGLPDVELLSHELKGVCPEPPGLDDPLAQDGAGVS

CC(C)CCn1cc2c(nc(NC(=O)Cc3ccsc3)n3nc(-c4ccco4)nc23)n1
Ki (Adenosine receptor A2a): 3.88 nM
Ki (Adenosine receptor A3): 540 nM

Cn1cc2c(nc(NC(=O)Cc3cccc(Cl)c3)n3nc(-c4ccco4)nc23)n1
Ki (Adenosine receptor A2a): 30.5 nM
Ki (Adenosine receptor A3): 1.94 nM
IC50 (Adenosine receptor A2b): 8960 nM
Ki (Adenosine receptor A1): 410 nM

O=C(Cc1ccc(-c2ccccc2)cc1)Nc1nc2nn(CCc3ccccc3)cc2c2nc(-c3ccco3)nn12
Ki (Adenosine receptor A2a): 46.9 nM
Ki (Adenosine receptor A3): 125 nM
IC50 (Adenosine receptor A2b): 11100 nM
Ki (Adenosine receptor A1): 84.3 nM

CCCCn1cc2c(nc(NC(=O)Cc3ccsc3)n3nc(-c4ccco4)nc23)n1
Ki (Adenosine receptor A2a): 3.13 nM
Ki (Adenosine receptor A3): 189 nM
IC50 (Adenosine receptor A2b): 906 nM
Ki (Adenosine receptor A1): 25.5 nM

CC(C)CCn1cc2c(nc(NC(=O)Cc3ccc4ccccc4c3)n3nc(-c4ccco4)nc23)n1
Ki (Adenosine receptor A2a): 15.7 nM
Ki (Adenosine receptor A3): 409 nM
IC50 (Adenosine receptor A2b): > 10000 nM
Ki (Adenosine receptor A1): 140 nM

Cn1cc2c(nc(NC(=O)COc3ccc(Cl)cc3)n3nc(-c4ccco4)nc23)n1
Ki (Adenosine receptor A2a): 39.3 nM
Ki (Adenosine receptor A3): 223 nM
IC50 (Adenosine receptor A2b): > 10000 nM
Ki (Adenosine receptor A1): 963 nM

Nc1nc2c(cnn2CCCc2ccc3c(c2)O[C@@H](C(=O)O)O3)c2nc(-c3ccco3)nn12
Ki (Adenosine receptor A2a): 59 nM
Ki (Adenosine receptor A3): > 10000 nM

O=C(Cc1cccc2ccccc12)Nc1nc2nn(CCCc3ccccc3)cc2c2nc(-c3ccco3)nn12
Ki (Adenosine receptor A2a): 305 nM
Ki (Adenosine receptor A3): 343 nM
IC50 (Adenosine receptor A2b): > 100000 nM
Ki (Adenosine receptor A1): 710 nM

CCCCn1cc2c(nc(NC(=O)Cc3ccc(-c4ccccc4)cc3)n3nc(-c4ccco4)nc23)n1
Ki (Adenosine receptor A2a): 39.6 nM
Ki (Adenosine receptor A3): 189 nM
IC50 (Adenosine receptor A2b): 8630 nM
Ki (Adenosine receptor A1): 381 nM

COc1ccc(CC(=O)Nc2nc3nn(CCCc4ccccc4)cc3c3nc(-c4ccco4)nn23)cc1
Ki (Adenosine receptor A3): 120 nM

Cn1cc2c(nc(NC(=O)Cc3ccc(Cl)cc3)n3nc(-c4ccco4)nc23)n1
Ki (Adenosine receptor A2a): 156 nM
Ki (Adenosine receptor A3): 12.7 nM
IC50 (Adenosine receptor A2b): > 50000 nM
Ki (Adenosine receptor A1): 1850 nM

O=C(Cc1cccs1)Nc1nc2nn(CCc3ccccc3)cc2c2nc(-c3ccco3)nn12
Ki (Adenosine receptor A3): 330 nM
IC50 (Adenosine receptor A2b): > 10000 nM
Ki (Adenosine receptor A1): 18.5 nM

CCCn1cc2c(nc(NC(=O)Cc3cccc4ccccc34)n3nc(-c4ccco4)nc23)n1
Ki (Adenosine receptor A2a): 38.7 nM
Ki (Adenosine receptor A3): 17.3 nM
IC50 (Adenosine receptor A2b): 12400 nM
Ki (Adenosine receptor A1): 388 nM

O=C(Cc1ccc(Cl)cc1)Nc1nc2nn(CCCc3ccccc3)cc2c2nc(-c3ccco3)nn12
Ki (Adenosine receptor A2a): 89.9 nM
Ki (Adenosine receptor A3): 30.5 nM
IC50 (Adenosine receptor A2b): > 10000 nM
Ki (Adenosine receptor A1): 256 nM

O=C(Nc1cccc(Cl)c1)Nc1nc2nn(CCc3c(Br)cc(Br)cc3Br)cc2c2nc(-c3ccco3)nn12
Ki (Adenosine receptor A2a): 3600 nM
Ki (Adenosine receptor A3): 71 nM

CC(C)CCn1cc2c(nc(NC(=O)Cc3c(Cl)cccc3Cl)n3nc(-c4ccco4)nc23)n1
Ki (Adenosine receptor A2a): 18.7 nM
Ki (Adenosine receptor A3): 207 nM
IC50 (Adenosine receptor A2b): 1440 nM
Ki (Adenosine receptor A1): 121 nM

CC(C)CCn1cc2c(nc(NC(=O)CCCNC(=O)OC(C)(C)C)n3nc(-c4ccco4)nc23)n1
Ki (Adenosine receptor A2a): 297 nM

CCCn1cc2c(nc(NC(=O)Cc3ccc4ccccc4c3)n3nc(-c4ccco4)nc23)n1
Ki (Adenosine receptor A2a): 7.99 nM
Ki (Adenosine receptor A3): 95.9 nM
IC50 (Adenosine receptor A2b): 5370 nM
Ki (Adenosine receptor A1): 160 nM

CCn1cc2c(nc(NC(=O)Cc3cccc4ccccc34)n3nc(-c4ccco4)nc23)n1
Ki (Adenosine receptor A2a): 74.6 nM
Ki (Adenosine receptor A3): 3.05 nM
IC50 (Adenosine receptor A2b): > 50000 nM
Ki (Adenosine receptor A1): 596 nM

Cn1cc2c(nc(NC(=O)Cc3cccc4ccccc34)n3nc(-c4ccco4)nc23)n1
Ki (Adenosine receptor A2a): 80.5 nM
Ki (Adenosine receptor A3): 3.47 nM
IC50 (Adenosine receptor A2b): > 10000 nM
Ki (Adenosine receptor A1): 872 nM

Cn1cc2c(nc(NC(=O)COc3ccccc3)n3nc(-c4ccco4)nc23)n1
Ki (Adenosine receptor A3): 692 nM

CCOC(=O)COc1ccc(CCCn2ncc3c2nc(N)n2nc(-c4ccco4)nc32)cc1
Ki (Adenosine receptor A2a): 0.43 nM
Ki (Adenosine receptor A3): > 10000 nM

CCn1cc2c(nc(NC(=O)Cc3ccsc3)n3nc(-c4ccco4)nc23)n1
Ki (Adenosine receptor A2a): 23 nM
Ki (Adenosine receptor A3): 765 nM
IC50 (Adenosine receptor A2b): 9370 nM
Ki (Adenosine receptor A1): 154 nM

Nc1nc2nn(CCc3c(Br)cc(Br)cc3Br)cc2c2nc(-c3ccco3)nn12
Ki (Adenosine receptor A2a): 348 nM
Ki (Adenosine receptor A3): 4480 nM

O=C(COc1ccc(Cl)cc1)Nc1nc2nn(CCc3ccccc3)cc2c2nc(-c3ccco3)nn12
Ki (Adenosine receptor A2a): 31.7 nM
Ki (Adenosine receptor A3): 3250 nM

CCOC(=O)[C@H]1Oc2ccc(CCCn3ncc4c3nc(N)n3nc(-c5ccco5)nc43)cc2O1
Ki (Adenosine receptor A2a): 5.48 nM
Ki (Adenosine receptor A3): > 10000 nM

CCCCn1cc2c(nc(NC(=O)Cc3ccc4ccccc4c3)n3nc(-c4ccco4)nc23)n1
Ki (Adenosine receptor A2a): 7.94 nM
Ki (Adenosine receptor A3): 174 nM

CCn1cc2c(nc(N)n3nc(-c4ccco4)nc23)n1
Ki (Adenosine receptor A3): 3760 nM

O=C(Cc1cccc(Cl)c1)Nc1nc2nn(CCc3ccccc3)cc2c2nc(-c3ccco3)nn12
Ki (Adenosine receptor A3): 273 nM
IC50 (Adenosine receptor A2b): 9100 nM
Ki (Adenosine receptor A1): 13.2 nM

CC(C)CCn1cc2c(nc(NC(=O)COc3ccc(Cl)cc3)n3nc(-c4ccco4)nc23)n1
Ki (Adenosine receptor A2a): 16.1 nM
Ki (Adenosine receptor A3): 2310 nM

O=C(Cc1ccsc1)Nc1nc2nn(CCc3ccccc3)cc2c2nc(-c3ccco3)nn12
Ki (Adenosine receptor A3): 726 nM
IC50 (Adenosine receptor A2b): > 10000 nM
Ki (Adenosine receptor A1): 22.8 nM

CC(C)(C)OC(=O)NCCCC(=O)Nc1nc2nn(CCc3ccccc3)cc2c2nc(-c3ccco3)nn12
Ki (Adenosine receptor A2a): 288 nM

COc1ccc(NC(=O)Nc2nc3nn(Cc4cccc5ccccc45)cc3c3nc(-c4ccco4)nn23)cc1
Ki (Adenosine receptor A2a): 3260 nM
Ki (Adenosine receptor A3): 16 nM

CCCCn1cc2c(nc(NC(=O)Cc3cccc4ccccc34)n3nc(-c4ccco4)nc23)n1
Ki (Adenosine receptor A3): 100 nM
IC50 (Adenosine receptor A2b): 7370 nM
Ki (Adenosine receptor A1): 170 nM

COc1ccc(CC(=O)Nc2nc3nn(C)c(SC)c3c3nc(-c4ccco4)nn23)cc1
Ki (Adenosine receptor A3): > 1000 nM

CSc1c2c(nc(NC(=O)Cc3ccc(OCC(C)C)cc3)n3nc(-c4ccco4)nc23)nn1C
Ki (Adenosine receptor A2a): 50 nM
Ki (Adenosine receptor A3): > 1000 nM

CCn1cc2c(nc(NC(=O)C(c3ccccc3)c3ccccc3)n3nc(-c4ccco4)nc23)n1
Ki (Adenosine receptor A2a): 131 nM
Ki (Adenosine receptor A3): 0.98 nM

C=Cn1cc2c(nc(NC(=O)Nc3ccc(OC)cc3)n3nc(-c4ccco4)nc23)n1
Ki (Adenosine receptor A2a): 176 nM
Ki (Adenosine receptor A3): 0.48 nM

Nc1nc2c(cnn2CCCc2ccc3c(c2S(=O)(=O)O)OCO3)c2nc(-c3ccco3)nn12
Ki (Adenosine receptor A2a): 75 nM
Ki (Adenosine receptor A3): > 10000 nM

CC(C)CCn1cc2c(nc(NC(=O)Cc3cccs3)n3nc(-c4ccco4)nc23)n1
Ki (Adenosine receptor A3): 308 nM

COc1ccc(CC(=O)Nc2nc3nn(CCC(C)C)cc3c3nc(-c4ccco4)nn23)cc1
Ki (Adenosine receptor A2a): 1.95 nM
Ki (Adenosine receptor A3): 359 nM

CCOC(=O)c1ccc(CCn2ncc3c2nc(N)n2nc(-c4ccco4)nc32)cc1
Ki (Adenosine receptor A2a): 4 nM
Ki (Adenosine receptor A3): > 10000 nM

CC(C)CCn1cc2c(nc(NC(=O)Cc3ccc(-c4ccccc4)cc3)n3nc(-c4ccco4)nc23)n1
Ki (Adenosine receptor A3): 268 nM
IC50 (Adenosine receptor A2b): 8960 nM
Ki (Adenosine receptor A1): 84.3 nM

COc1ccc(NC(=O)Nc2nc3nn(CCc4c(Br)cc(Br)cc4Br)cc3c3nc(-c4ccco4)nn23)cc1
Ki (Adenosine receptor A2a): 2030 nM
Ki (Adenosine receptor A3): 25 nM

O=C(COc1ccc(Cl)cc1)Nc1nc2nn(CCCc3ccccc3)cc2c2nc(-c3ccco3)nn12
Ki (Adenosine receptor A3): 400 nM
IC50 (Adenosine receptor A2b): > 10000 nM
Ki (Adenosine receptor A1): 71.1 nM
